Measurements taken from the supplement of paper PMC10599287.

How the values were obtained:
[1] = compound: CCNC(=O)C#Cc1ccc2c(C(=Nc3ccc(CN(C)C)cc3)c3ccccc3)c(O)[nH]c2c1; assay: absolute IC70 (antiproliferative, propidium iodide); higher = less potent; conditions: exposure time: 4 days
Method: (§1)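 Modified propidium iodide survival/proliferation assay in 294 human tumor cell lines (2D monolayer for solid tumors, suspension for hematologic lines) after 4 days of continuous exposure to 10 concentrations in half-log steps from 0.001 to 30 µM. Absolute IC70 was fitted by four-parameter nonlinear regression of T/C × 100 (%) values; 30 µM is the top dose.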

GDC-0623 = compound: O=C(NOCCO)c1ccc2cncn2c1Nc1ccc(I)cc1F [GDC-0623]; assay: as above; conditions: exposure time: 4 days
Method: as §1

Row | Test System | absolute IC70 [1] [nM] | absolute IC70 (GDC-0623) [nM]
1 | M059K | 1150 | > 30000
2 | HUT-78 | 72 | > 30000
3 | SK-LMS-1 | 937 | 368
4 | CAL-27 | 250 | 14
5 | PXF_698 | 301 | > 30000
6 | KLE | 5420 | > 30000
7 | U-937 | 348 | > 30000
8 | NCI-H1184 | 815 | > 30000
9 | SNU-739 | 1380 | > 30000
10 | RXF_1220 | 4720 | > 30000
11 | RXF_2282 | 26 | > 30000
12 | KYSE-150 | 2820 | > 30000
13 | RPMI-2650 | 2150 | > 30000
14 | WSU-DLCL2 | 892 | > 30000
15 | OCI-AML2 | 7 | < 1
16 | HCT-15 | 1440 | > 30000
17 | HNXF_1853 | 641 | 451
18 | COLO-741 | 524 | 38.9
19 | EGI-1 | 693 | > 30000
20 | MEXF_1792 | 462 | 169
21 | RKO | 21 | 125
22 | DETROIT562 | 3090 | > 30000
23 | OCI-LY18 | 494 | > 30000
24 | HNXF_1859 | 116 | 117
25 | SNU-449 | 3200 | 2220
26 | SNU-899 | 515 | 35

Row | Test System | absolute IC70 [1] [nM] | absolute IC70 (GDC-0623) [nM]
27 | FADU | 2260 | > 30000
28 | OVXF_1023 | 14200 | > 30000
29 | EJM | 2820 | > 30000
30 | HPAF-II | 285 | 79
31 | KM-H2 | 2770 | > 30000
32 | MDST8 | 55.5 | 6.01
33 | LXFL_1674 | 1050 | > 30000
34 | OVCAR-8 | 2800 | > 30000
35 | EFO-27 | 724 | > 30000
36 | TE671 | 1360 | > 30000
37 | NCI-H345 | 11800 | > 30000
38 | GXA_3080 | 114 | 117
39 | HT-29 | 392 | 87
40 | A427 | 283 | > 30000
41 | COLO-205 | 14 | 17
42 | RCH-ACV | 6 | > 30000
43 | MCF7 | 281 | > 30000
44 | IGROV-1 | 1870 | > 30000
45 | Calu-1 | 3440 | > 30000
46 | 786-O | 1170 | > 30000
47 | A-431 | 30 | 563
48 | LEXFAM_2531 | 26 | > 30000
49 | NALM-33 | 7 | > 30000
50 | LP-1 | 2160 | > 30000
51 | SW1710 | 525 | 3740
52 | PAXF_546 | 12200 | > 30000

Row | Test System | absolute IC70 [1] [nM] | absolute IC70 (GDC-0623) [nM]
53 | CNXF_498 | 5620 | > 30000
54 | SISO | 715 | > 30000
55 | EFE-184 | 3950 | > 30000
56 | GXF_251 | 944 | 3340
57 | CCRF-CEM-VCR | 73 | > 30000
58 | HH | 1370 | > 30000
59 | LN-229 | 281 | 102
60 | IM95 | 12200 | > 30000
61 | MKN1 | 289 | > 30000
62 | OE21 | 2210 | > 30000
63 | GP5d | 80.2 | > 30000
64 | LXFA_923 | 24400 | > 30000
65 | DMS-273 | 5120 | > 30000
66 | MOLT-3 | 6 | > 30000
67 | KU-19-19 | 56 | 22
68 | MCF 10A | 31 | 48
69 | RXF_1781 | 309 | 7380
70 | T24 | 353 | 46
71 | OVCAR-4 | 4280 | > 30000
72 | MIA-PaCa-2 | 103 | 5
73 | DoTc2-4510 | 260 | > 30000
74 | JHH-6 | 1140 | > 30000
75 | LEXFAL_2665 | 223 | > 30000
76 | TK10 | 873 | > 30000
77 | CCRF-CEM | 13 | > 30000
78 | Hs 729 | 8020 | > 30000

Row | Test System | absolute IC70 [1] [nM] | absolute IC70 (GDC-0623) [nM]
79 | SR | 13 | > 30000
80 | Saos-2 | 593 | > 30000
81 | SU-DHL-1 | 406 | > 30000
82 | SNU-16 | 15400 | > 30000
83 | JIMT-1 | 1900 | > 30000
84 | KYSE-520 | 525 | 158
85 | EVSA-T | 2240 | > 30000
86 | UXF_1138 | 6 | > 30000
87 | CXF_94 | 554 | 167
88 | MDA-MB-468 | 347 | 2240
89 | MEXF_1341 | 482 | 26
90 | DU-4475 | 9 | 4
91 | JURL-MK1 | 149 | 11
92 | MINO | 10 | > 30000
93 | LXFL_529 | 329 | 233
94 | 22RV1 | 616 | > 30000
95 | LXFA_586 | 106 | > 30000
96 | CAL-33 | 346 | 517
97 | HL-60 | 27 | 6
98 | LXFA_623 | 960 | 1010
99 | SF295 | 8840 | > 30000
100 | TFK-1 | 3450 | > 30000
101 | RXF_2516 | 164 | 8070
102 | THP-1 | 84 | 47
103 | SW579 | 279 | 204
